From patent US12441709B2, “Therapeutic compounds” (INDIVIOR UK LIMITED, priority 2016, dated 2025) come the findings set out here.

Assay [1] deals with T1, human OX1 receptor (Homo sapiens, UniProt O43613).
T1 construct: expressed in transfected cells; host or cells: CHO cells
T1 sequence (O43613 1-425): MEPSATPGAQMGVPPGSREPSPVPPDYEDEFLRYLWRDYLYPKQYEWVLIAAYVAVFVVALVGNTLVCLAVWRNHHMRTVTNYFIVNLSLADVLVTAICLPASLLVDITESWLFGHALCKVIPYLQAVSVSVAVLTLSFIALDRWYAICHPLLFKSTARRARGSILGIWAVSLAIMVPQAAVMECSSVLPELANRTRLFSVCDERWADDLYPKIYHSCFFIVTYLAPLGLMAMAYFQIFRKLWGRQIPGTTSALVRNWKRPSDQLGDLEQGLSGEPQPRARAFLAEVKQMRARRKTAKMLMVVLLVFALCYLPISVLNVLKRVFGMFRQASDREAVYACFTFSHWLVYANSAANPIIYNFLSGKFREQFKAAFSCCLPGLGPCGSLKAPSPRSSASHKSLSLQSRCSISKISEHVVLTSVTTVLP
The assay can be described thus: Ox1 antagonist FLIPR assay (calcium, orexin A at EC75). To be noted: CHO cells expressing human OX1; at least four replicates; read-out: hOX1 pIC50 (converted). Format: cell-based. The text has this: Antagonism against orexin receptors has been measured for each example compound using at least one of the following procedures. Antagonism is reported as a pIC50, where pIC50=−log10(IC50) and where IC50 is the concentration of example compound needed to inhibit 50% of the agonist response. These values may fluctuate depending on the daily cellular assay performance. Fluctuations of this kind are known to those skilled in the art. All reported values are the result of at least four replicate experiments. Ox2 values are only reported from dose response curves for which the top concentration is at least 10 μM.
Ox1 and Ox2 Antagonist FLIPR Assay: […]
The next day media is removed and replaced with 30 μL/well of cell loading buffer (a vial of Calcium 5 is solubilized in 20 mL of assay buffer) and the cells incubated for 1 hr at 37° C. The serially diluted test compounds (10 μL/well) are added to the cell plate by the FLIPR Tetra and the addition is monitored for 5 min by the instrument. […] Finally 10 μL of orexin Ain assay buffer+0.1% (w/v) bovine serum albumin is dispensed by the FLIPR Tetra at an EC75 concentration determined for each receptor on the day of the assay. Fluorescence is measured at excitation and emission wavelengths of 485 nm and 525 nm, respectively and data analyzed using Graph Pad Prism for the EC75 value of orexin A and Aplus to determine a pIC50 value for each test compound. […]

Assay [2] has as its target T1, human OX1 receptor. The assay can be described thus: Orexin 1 receptor radioligand binding assay ([3H]-SB674042 competition). To be noted: CHO membranes, 1 nM [3H]-SB674042, 90 min room temperature; read-out: hOX1 pKi (converted). As to the method:
Orexin 1 Receptor Radioligand Binding Assay:
Cell membranes were prepared from the human OX1 receptor expressing CHO cell line. The harvested cell pellets were homogenized in ice-cold buffer (15 mM TrisHCl (pH 7.5), 2 mM MgCl2, 0.3 mM EDTA, 1 mM EGTA, Sigma protease inhibitor cocktail) and centrifuged at 41,000 g for 20 min at 4° C. After discarding the supernatants the pellets were re-suspended in the before mentioned buffer followed by homogenization and another centrifugation. Obtained pellets were re-suspended in ice cold buffer containing 75 mM TrisHCl (pH 7.5), 12.5 mM MgCl2, 0.3 mM EDTA, 1 mM EGTA, 250 mM sucrose and a protease inhibitor cocktail (Sigma). After protein quantification with the Pierce Protein Assay Kit, using BSA as standard, the membrane homogenates were aliquoted and frozen down at […] until further use.
Expression levels of the Ox1 receptor (Bmax) were determined by saturation binding and the Kd of the radioligand [^3H]SB674042 was determined by association and dissociation kinetics. Data were elaborated with Graph Pad Prism using radioligand binding analysis. Steady state binding was reached after 90 min of incubation at room temperature. […]

On to `Cc1ccc(-n2nccn2)c(C(=O)N(C)[C@@H](C)CNc2ncc(C(F)(F)F)cn2)n1` [Example 2, N,6-dimethyl-3-(2H-1,2,3-triazol-2-yl)-N-[(2S)-1-{[5-(trifluoromethyl)pyrimidin-2-yl]amino}propan-2-yl]pyridine-2-carboxamide], for which the IC50 at human OX1 receptor [1] was 1.26 nM. In addition, the Ki on human OX1 receptor [2] was 1.58 nM.
As for `Cc1ccc(-n2nccn2)c(C(=O)N(C)[C@@H](C)CNc2cnc(C(F)(F)F)cn2)n1` [Example 1, N,6-dimethyl-3-(2H-1,2,3-triazol-2-yl)-N-[(2S)-1-{[5-(trifluoromethyl)pyrazin-2-yl]amino}propan-2-yl]pyridine-2-carboxamide], the IC50 on human OX1 receptor [1] is 0.794 nM. Besides, at human OX1 receptor [2], the Ki is 1 nM.
